Reference: ChEMBL document CHEMBL4190369, “Indolinone Inhibitors of ENT1 for the Treatment of Schizophrenia” (ACS Med Chem Lett, 2017)

What follows are compounds tested on Mus musculus (assay: Anti-schizophrenic activity in mouse assessed inhibition of L-687414-induced hyperlocomotion at 30 mg/kg, ip pretreated for 15 mins followed by L-687414 addition measured at 5 mins interval for 30 mins relative to control).
Assay type: functional
Compound `Cc1ncc(-c2ccc3c(c2)N(c2cnc4c(c2)C(C)(C)C(=O)N4C)C(=O)C3(C)C)cn1` has an inhibition in vivo at 30 mg/kg of 93.5%. Work on `Cc1ncc(-c2ccc3c(c2)N(c2cnc(C)c(N4CCOCC4)n2)C(=O)C3(C)C)cn1` yielded an inhibition in vivo at 30 mg/kg of 88.8%. Compound `Cc1ncc(-c2ccc3c(c2)N(c2ccc4c(c2)N(C)C(=O)CO4)C(=O)C3(C)C)cn1` has an inhibition in vivo at 30 mg/kg of 93.8%. `Cc1ncc(-c2ccc3c(c2)N(c2cncc(N4CCOCC4)n2)C(=O)C3(C)C)cn1` showed an inhibition in vivo at 30 mg/kg of 90%. For `Cc1ncc(-c2ccc3c(c2)N(c2cnc(-n4ccnc4C)cn2)C(=O)C3(C)C)cn1`, the inhibition in vivo at 30 mg/kg was 96.3%. Work on `Cc1ncc(-c2ccc3c(c2)N(c2ccc4c(n2)N(C)C(=O)C4(C)C)C(=O)C3(C)C)cn1` yielded an inhibition in vivo at 30 mg/kg of 99.5%. Work on `Cc1ncc(-c2ccc3c(c2)N(c2cncc(N4CCCC4=O)n2)C(=O)C3(C)C)cn1` yielded an inhibition in vivo at 30 mg/kg of 87.8%. Compound `Cc1ncc(-c2ccc3c(c2)N(c2cnc(C)c(N4CCOC4=O)n2)C(=O)C3(C)C)cn1` has an inhibition in vivo at 30 mg/kg of 89.7%. `Cc1ncc(-c2ccc3c(c2)N(c2cncc(N4CCOC4=O)n2)C(=O)C3(C)C)cn1` was tested, and the inhibition in vivo at 30 mg/kg was 87.1%.
